The source of these data is publication PMC8775867, “The Systems of Naringenin with Solubilizers Expand Its Capability to Prevent Neurodegenerative Diseases” (International Journal of Molecular Sciences, 2022).

The test addresses T1, tyrosinase.
T1 construct: gene PPO3
Put plainly: L-DOPA oxidation, absorbance […] nm. Format: biochemical. The following applies: L-DOPA substrate, phosphate buffer pH 6.8, room temperature.

Each structure is given as a SMILES string. Converted amounts (≈) assume the structure as drawn.

`O=C(O)CCCCCCCC(=O)O` [azelaic acid] gave a half-inhibitory concentration (IC50) of 5883 ± 23 µg/mL (≈ 31.3 mM).
In the case of `O=C1C[C@@H](c2ccc(O)cc2)Oc2cc(O)cc(O)c21` [naringenin], the IC50 (NAR in DMSO) came to 4615 ± 89 µg/mL (≈ 17 mM).
